Results published in publication PMC10629583, “Specific inhibition of an anticancer target, polo-like kinase 1, by allosterically dismantling its mechanism of substrate recognition” (Proceedings of the National Academy of Sciences of the …, 2023).
Entries after “also recorded” stand apart in the source; their conditions may differ. Blank lines part the entries; values can stand above or below the compound they belong to. [ ]: non-standard residue; d: D form. The star is where a group is joined. FITC = O=C1OC2(c3ccc(O)cc3Oc3cc(O)ccc32)c2ccc(NC(=S)*)cc21; pT = C[C@@H](OP(=O)(O)O)[C@H](N)C(=O)O; Ahx = NCCCCCC(=O)O

What was measured:
PBD1 F559K mutant = target: T1, PBD1 F559K mutant (Homo sapiens, UniProt P53350, F559K); assay: FP-based binding/inhibition assay, PBD1 F559K; details: FP binding, PBD1 F559K vs WT
T1 construct: constructs expressing PBD1 (residues 345–603) WT (pKM7650); His; TEV site (N); made in house; host or cells: bacteria (E. coli)
T1 sequence (P53350 345-603 F559K): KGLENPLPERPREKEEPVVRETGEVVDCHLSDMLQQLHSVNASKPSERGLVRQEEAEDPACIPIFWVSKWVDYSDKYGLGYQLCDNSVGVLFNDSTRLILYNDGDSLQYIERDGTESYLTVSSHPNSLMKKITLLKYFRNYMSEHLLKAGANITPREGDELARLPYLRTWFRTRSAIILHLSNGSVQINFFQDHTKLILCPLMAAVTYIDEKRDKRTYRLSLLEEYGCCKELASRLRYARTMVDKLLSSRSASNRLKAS
Protocol: (§1) FP assays were carried out essentially as described previously ([35], [36]). FITC-conjugated ligands (15 nM) were mixed with PBDs at their EC85 concentrations. All the samples were analyzed approximately 30 min after reaction in a 384-well format using the SpectraMax Paradigm multimode microplate detection platform (Molecular Devices). Data were analyzed after carrying out at least three independent experiments using GraphPad Prism software version 8.
(§2) Fig. S4. Generation of F559 mutants for in vitro and cell-based assays in Fig. 4. (A) SDS-PAGE showing the proteins used for the FP assays in Fig. 4 A and B. CBB, a Coomassie Brilliant Blue– stained gel. (B) Summary of Kd and EC85 values for PBD1 WT and mutants. The Kd values for PBD1 WT and mutants were determined after extrapolating them from the binding curves as the concentration at which 50% of the FITC-Ahx-DPPLHSpTAI-NH2 are PBD1-bound. The EC85 values indicate the effective concentration of 85% of the maximal concentration calculated for each protein. The FP values were obtained 30 minutes after incubation. For the F559K and F559R mutants, we were not able to determine the EC85 values and therefore used 2 µM of these proteins for the assays in Fig. 4B. N.D., not determined. […]

PBD1 F559E mutant = target: T2, PBD1 F559E mutant (Homo sapiens, UniProt P53350, F559E); assay: FP-based binding/inhibition assay, PBD1 F559E; details: FP binding, PBD1 F559E vs WT
T2 construct: constructs expressing PBD1 (residues 345–603) WT (pKM7650), F559D (pKM7878), F559E (pKM7879); His; TEV site (N); made in house; host or cells: bacteria (E. coli)
T2 sequence (P53350 345-603 F559E): as the sequence (P53350 345-603 F559K) above, with K215E counted along it
Protocol: as §1, §2

PBD1 F559R mutant = target: T3, PBD1 F559R mutant (Homo sapiens, UniProt P53350, F559R); assay: FP-based binding/inhibition assay, PBD1 F559R; details: FP binding, PBD1 F559R vs WT
T3 construct: constructs expressing PBD1 (residues 345–603) WT (pKM7650); His; TEV site (N); made in house; host or cells: bacteria (E. coli)
T3 sequence (P53350 345-603 F559R): as the sequence (P53350 345-603 F559K) above, with K215R counted along it
Protocol: as §1, §2

PBD1 F559D mutant = target: T4, PBD1 F559D mutant (Homo sapiens, UniProt P53350, F559D); assay: FP-based binding/inhibition assay, PBD1 F559D; details: FP binding, PBD1 F559D vs WT
T4 construct: constructs expressing PBD1 (residues 345–603) WT (pKM7650), F559D (pKM7878); His; TEV site (N); made in house; host or cells: bacteria (E. coli)
T4 sequence (P53350 345-603 F559D): as the sequence (P53350 345-603 F559K) above, with K215D counted along it
Protocol: as §1, §2

cultured cells = tested on: cultured cells; design: method as in PMID 31685831; details: cited from earlier work
full-length Plk1 = target: T5, full-length Plk1 (Homo sapiens, UniProt P53350); assay: ELISA-based PBD1-binding inhibition assay; details: total lysates from HEK293A cells expressing full-length Plk1; biotinylated PBIP1 p-T78 peptide; read-out: Anti-Plk1 (full length) ELISA (IC50) Mean ± SEM
T5 construct: expressed in transfected cells; host or cells: HEK293A cells infected with adenovirus; total lysate
T5 sequence (P53350 whole entry): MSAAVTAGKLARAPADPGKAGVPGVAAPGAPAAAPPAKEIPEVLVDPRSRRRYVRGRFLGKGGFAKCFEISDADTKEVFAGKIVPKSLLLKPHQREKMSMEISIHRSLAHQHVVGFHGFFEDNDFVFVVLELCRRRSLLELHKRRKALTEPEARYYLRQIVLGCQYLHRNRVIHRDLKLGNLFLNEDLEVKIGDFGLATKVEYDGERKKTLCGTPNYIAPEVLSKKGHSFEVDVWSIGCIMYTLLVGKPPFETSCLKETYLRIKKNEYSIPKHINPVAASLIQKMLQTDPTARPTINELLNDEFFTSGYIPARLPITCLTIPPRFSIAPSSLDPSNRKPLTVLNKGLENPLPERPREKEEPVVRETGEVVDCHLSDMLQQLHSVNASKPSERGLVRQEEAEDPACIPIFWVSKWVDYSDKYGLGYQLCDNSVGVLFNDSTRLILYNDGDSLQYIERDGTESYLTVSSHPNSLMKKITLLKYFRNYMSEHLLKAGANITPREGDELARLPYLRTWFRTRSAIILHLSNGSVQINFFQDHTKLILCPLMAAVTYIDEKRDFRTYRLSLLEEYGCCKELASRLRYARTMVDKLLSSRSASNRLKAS

Plk1 PBD (PBD1) = target: T6, Plk1 PBD (PBD1) (Homo sapiens, UniProt P53350); assay: FP-based inhibition assay, PBD1; format: binding; details: FP, bacterially expressed purified PBD, FITC-ligand 15 nM, PBD at EC85; read-out: PBD1 IC50 ± SD
T6 construct: constructs expressing PBD1 (residues 345–603) WT (pKM7650); His; TEV site (N); made in house; host or cells: bacteria (E. coli)
T6 sequence (P53350 345-603): as the sequence (P53350 345-603 F559K) above, with K215F counted along it
Protocol: as §1, with “FITC-conjugated ligands (15 nM) were mixed with PBDs at their EC85 concentrations.” left out

Plk3 PBD (PBD3) = target: T7, Plk3 PBD (PBD3) (Homo sapiens, UniProt Q9H4B4); assay: FP-based inhibition assay, PBD3; format: binding; details: bacterially expressed purified PBD, FITC-ligand 15 nM, PBD at EC85
T7 construct: MBP-PBD3-His (335–646) (pKM3359) and its A612F (pKM7981); His (C); made in house; host or cells: bacteria (E. coli)
T7 sequence (Q9H4B4 335-646): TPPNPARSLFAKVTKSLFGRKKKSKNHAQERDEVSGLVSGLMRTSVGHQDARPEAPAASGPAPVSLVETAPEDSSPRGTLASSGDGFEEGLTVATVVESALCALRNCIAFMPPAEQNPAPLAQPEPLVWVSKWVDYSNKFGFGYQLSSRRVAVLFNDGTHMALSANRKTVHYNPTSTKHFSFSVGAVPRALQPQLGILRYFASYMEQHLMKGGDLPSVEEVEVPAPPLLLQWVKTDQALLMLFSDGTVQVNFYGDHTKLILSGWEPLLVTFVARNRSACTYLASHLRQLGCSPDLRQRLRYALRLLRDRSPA
Protocol: as §1

L363 cells = assay: MTS cell viability assay, L363 cells; format: cell-based; details: 48 h treatment
BZP Rat brain site = assay: PDSP off-target binding screen; details: read-out: Secondary screen Ki
Description: (§3) PDSP no. Compound Interactions (Ki, µM)
(§4) 60477 Allopole-A None observed.
(§5) trigger a secondary screen at that receptor.

Plk2 PBD (PBD2) = target: T8, Plk2 PBD (PBD2) (Homo sapiens, UniProt Q9NYY3); assay: FP-based inhibition assay, PBD2; format: binding; details: bacterially expressed purified PBD, FITC-ligand 15 nM, PBD at EC85
T8 construct: Purification of PBD2-His (355–685) (pKM3358) and its S652F mutant (pKM7980); His (C); made in house; host or cells: bacteria (E. coli)
T8 sequence (Q9NYY3 355-685): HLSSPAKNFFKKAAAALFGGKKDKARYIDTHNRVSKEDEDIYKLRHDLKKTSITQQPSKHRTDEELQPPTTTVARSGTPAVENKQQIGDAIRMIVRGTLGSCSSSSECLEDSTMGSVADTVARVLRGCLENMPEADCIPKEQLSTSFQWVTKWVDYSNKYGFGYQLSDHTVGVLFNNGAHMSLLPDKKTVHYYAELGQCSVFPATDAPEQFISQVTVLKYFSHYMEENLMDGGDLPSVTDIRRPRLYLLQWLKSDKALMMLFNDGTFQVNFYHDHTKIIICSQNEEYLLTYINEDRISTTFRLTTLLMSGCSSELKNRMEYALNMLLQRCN
Protocol: as §1, with “FITC-conjugated ligands (15 nM) were mixed with PBDs at their EC85 concentrations.” left out

Flag-Plk2 K108M = assay: Pulldown with biotinylated compound 22, Plk2; format: binding; details: streptavidin agarose, anti-Flag immunoblot
Protocol: (§6) A mixture of total cell lysates expressing Flag-Plk1 K82M (pKL577), Flag-Plk2 K108M (pKL1416), or Flag-Plk3 K52R (pKM203) (a gift from Wei Dai, New York University School of Medicine, NY) was prepared in TBSN buffer and incubated with a biotinylated Allopole-A-derivative, 22, or biotin alone. The resulting samples were then subjected to pulldown analyses with streptavidin agarose bead (Thermo Fisher Scientific), after which they were separated by SDS-PAGE and immunoblotted with anti-Flag antibody.

Flag-Plk1 K82M = assay: Pulldown with biotinylated compound 22, Plk1; format: binding; details: streptavidin agarose, anti-Flag immunoblot
Protocol: as §6

Flag-Plk3 K52R = target: T9, Flag-Plk3 K52R (Homo sapiens, UniProt Q9H4B4, K91R); assay: Pulldown with biotinylated compound 22, Plk3; format: binding; details: streptavidin agarose, anti-Flag immunoblot
T9 construct: expressed in transfected cells; host or cells: HEK293 cells; mixed total lysates
T9 sequence (Q9H4B4 40-646 K91R limits assumed): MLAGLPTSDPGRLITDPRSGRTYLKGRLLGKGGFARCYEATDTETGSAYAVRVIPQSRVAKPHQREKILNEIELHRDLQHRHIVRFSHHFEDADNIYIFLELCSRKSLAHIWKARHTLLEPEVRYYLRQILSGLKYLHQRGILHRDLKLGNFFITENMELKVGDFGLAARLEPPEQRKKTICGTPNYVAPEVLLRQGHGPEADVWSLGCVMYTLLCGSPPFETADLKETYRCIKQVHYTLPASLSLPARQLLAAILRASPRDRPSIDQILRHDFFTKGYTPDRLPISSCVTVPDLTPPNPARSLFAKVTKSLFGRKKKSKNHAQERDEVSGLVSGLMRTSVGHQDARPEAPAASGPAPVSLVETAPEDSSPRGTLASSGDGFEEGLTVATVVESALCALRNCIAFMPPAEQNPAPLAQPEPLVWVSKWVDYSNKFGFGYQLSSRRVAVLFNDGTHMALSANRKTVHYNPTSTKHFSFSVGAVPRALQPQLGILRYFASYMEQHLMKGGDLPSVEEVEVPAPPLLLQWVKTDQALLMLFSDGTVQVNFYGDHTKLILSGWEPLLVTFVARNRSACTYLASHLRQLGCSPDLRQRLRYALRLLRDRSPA
Protocol: as §6

[1] = Conversion of prodrug 6 to active species 5 by GSH (HPLC); format: physicochemical; details: room temperature, after 5 min
Protocol: To a solution of 6 (1.0 mg, 2.4 µmol) in 0.800 mL of MeOH-d4 was added a solution of glutathione (1.1 mg, 3.6 µmol) and sodium carbonate (0.76 mg, 7.2 µmol) in 0.200 mL of D2O. The reaction was stirred at room temperature and sampled at 5, 10, 20, and 60 min. Aliquots were flash-frozen on dry ice and always stored at −80 °C. HPLC and mass spectrometry were used to analyze the reaction mixtures.
HPLC analysis of both pure 6 (rt = 13.95 min) and 5 (rt = 11.16 min) using the method of acetonitrile 05 to 95% and 10 mM triethylammonium acetate 95 to 5% in 20 min gave standards to compare against the reaction mixture. The HPLC analysis of the reaction mixture, compared to standards, was performed using a Hewlett−Packard 1100 HPLC equipped with an Agilent Eclipse 5 µm XDB-C18 analytical column (50 mm × 4.6 mm; Agilent Technologies Inc.).

[2] = Solubility in PBS (imaging of insoluble particles, dynamic light scattering); format: physicochemical; details: PBS buffer (pH 7.4)
Protocol: All samples were analyzed after adjusting the concentration to 100 μM solution in the PBS buffer (pH 7.4) containing 1% DMSO. The measurements were carried out at 25 °C using the DynaPro NanoStar system (Wyatt Technology). The intensity of the scattered light was measured as a function of time, and the resulting data were used to calculate the size and distribution of the particles in the sample. Collected data were analyzed using the DYNAMICS software to calculate the mean size and polydispersity index of the particles in the sample. At least three repeat measurements were performed to ensure that the results were accurate and reproducible.
Fig. S1. Solubility and activity of Allopole and its related compounds. (A) Images showing insoluble
particles of 200 µM of the indicated compounds dissolved in the PBS buffer. The aggregates of […]

[3] = tested on: 45 receptors and channels; assay: PDSP off-target screen (whole panel); format: binding, human
Description: as §3, §4, §5

Compound: FITC-Ahx-DPPLHSpTAI-NH2 ({FITC-Ahx}-DPPLHS[pT]AI-NH2; SMILES CC[C@H](C)[C@H](NC(=O)[C@H](C)NC(=O)[C@@H](NC(=O)[C@H](CO)NC(=O)[C@H](Cc1c[nH]cn1)NC(=O)[C@H](CC(C)C)NC(=O)[C@@H]1CCCN1C(=O)[C@@H]1CCCN1C(=O)[C@H](CC(=O)O)NC(=O)CCCCCNC(=S)Nc1ccc2c(c1)C(=O)OC21c2ccc(O)cc2Oc2cc(O)ccc21)[C@@H](C)OP(=O)(O)O)C(N)=O) [FITC-conjugated phosphopeptide, FP probe, reference compound]
Decrease in affinity of the FITC-phosphopeptide compared to WT (PBD1 F559K mutant): more than 27 fold
Decrease in affinity of the FITC-phosphopeptide compared to WT (PBD1 F559E mutant): approximately sevenfold decreased affinity
Decrease in affinity of the FITC-phosphopeptide compared to WT (PBD1 F559R mutant): > 42 fold
Decrease in affinity of the FITC-phosphopeptide compared to WT (PBD1 F559D mutant): 1.7 fold

Compound: Polotyrin
GI50 (cultured cells): a few hundred

Compound: O=C(CCCCC1SCC2NC(=O)NC21)NCCOCCOCCOCCOCCC(=O)NCCCn1c(=O)c2cc(F)ccc2n2c(=S)[nH]nc12 (centres unmarked) [compound 22]
IC50 (full-length Plk1): 9320 ± 170 nM
Pulldown of Plk2 from mixed total lysates (in words) (Flag-Plk2 K108M): not Plk2 or Plk3
Pulldown of Plk1 from mixed total lysates (in words) (Flag-Plk1 K82M): precipitated the full-length Plk1; also recorded: specifically interacts with
Pulldown of Plk3 from mixed total lysates (in words) (Flag-Plk3 K52R): not Plk2 or Plk3

Further lines, with some results ahead:

IC50 (full-length Plk1): 1660 ± 40 nM
IC50 (Plk1 PBD (PBD1)): 12.8 ± 2.6 nM
PBD3 IC50 ± SD (Plk3 PBD (PBD3)): N. S.
Ki (BZP Rat brain site): 410 nM
PBD2 IC50 ± SD (Plk2 PBD (PBD2)): N. S.
Compound: Cc1cc2c(s1)c(=O)n(CC1CC1)c1n[nH]c(=S)n21 [compound 5]
Cell efficacy (GI50) Mean ± SD (L363 cells): N. S.

IC50 (full-length Plk1): > 50000 nM
Conversion of prodrug to active species by GSH (in words) [1]: complete conversion
Solubility (in words) [2]: low solubility
Interactions (Ki, µM), summary of PDSP screen (in words) [3]: None observed
Compound: Cc1cc2c(s1)c(=O)n(CC1CC1)c1nnc(Sc3c([N+](=O)[O-])ncn3C)n21 [compound 6]
GI50 (L363 cells; read-out: Cell efficacy (GI50) Mean ± SD): 3130 ± 150 nM
